Data from patent publication US10238714B2, “Method for forming an immune-tolerant site and method for attracting immunosuppressive cells” (KYOTO UNIVERSITY, priority 2015, dated 2019).

What was measured:
[1] = test system: regulatory T cells (CD4+Foxp3+ cells); assay: Flow cytometry of immune cells at site where bFGF-containing agarose rod was embedded: regulatory T cells; assay type: in vivo, ACI rats; details: for ratio of Foxp3+ cells among CD4+ cells: STZ-diabetic ACI rats
Experimental: (§1) In a polystyrene tube with an inner diameter of 4 mm, 4.5 agarose solution was poured, and the tube was then left to stand at normal temperature to allow gelation of the agarose solution. The resulting agarose gel rod was removed from the polystyrene tube, and cut into a piece having a length of 25 mm. Subsequently, the agarose gel rod was stored in a freezer at −30° C. overnight to allow freezing of water. By freeze-drying the frozen agarose rod, a porous dry agarose rod was prepared. To the dry agarose rod, 100 μl of 500 μg/ml bFGF solution (FIBLAST Spray 500, Kaken Pharmaceutical Co., Ltd.) was added dropwise to include the bFGF solution in the dry agarose rod.
(§2) On the day when the agarose rod was to be embedded, streptozotocin (STZ) (60 mg/kg body weight) was administered to ACI rats to induce diabetes. To each of the left side and the right side of the back of each ACI rat, the agarose rod having a length of 25 mm and a diameter of 4 mm containing 50 μg of bFGF was embedded. On Day 7 after the embedding, the agarose rod was pulled out. In the vicinity of each place where the agarose rod had been embedded, formation of connective tissue containing a number of blood vessels was found. This tissue was collected, and then minced with scissors, followed by homogenization. The cells were then subjected to purification by Percoll density gradient centrifugation to obtain immune cells, and the obtained immune cells were analyzed using a flow cytometer.
The ratio of Foxp3^+ cells among CD4^+ cells was 25.4% on Day 2, 24.4% on Day 7, 24.4% on Day 10, and 26.4% on Day 14 after the bFGF-containing agarose rod was embedded under the skin.

[2] = test system: myeloid-derived suppressor cells (MDSCs); assay: Flow cytometry for CD11b/c and granulocytes at site where bFGF-containing agarose rod was embedded; assay type: in vivo, ACI rats; details: group in which the agarose rod-bFGF was embedded
Experimental: as §1
as §2, with “This tissue was collected, and then minced with scissors, followed by homogenization.” left out, “cytometer. […]” for “cytometer.”

[3] = test system: chemokine/cytokine-associated genes; assay: Gene expression analysis of tissue in vicinity of embedded bFGF-containing agarose rod; assay type: in vivo, rat; details: Day 7 after embedding, versus bFGF-free agarose rod group
Source text: (§3) On Day 7 after embedding of the bFGF-containing agarose rod by the same operation as in Example 4, the tissue in the vicinity of the place where the rod was embedded was collected. The collected tissue was immediately impregnated with RNA later solution (Life Technologies) to inhibit RNA degradation. RNA in the tissue was extracted by the column method. The extracted RNA was amplified by the Express kit method (Affymetrix) and biotin-labeled, followed by hybridization with a Rat Genome 230 2.0 array (Affymetrix). Signals were read by a Hewlett-Packard GeneArray Scanner G2500A. By such a process, gene expression analysis was carried out for three tissue samples obtained from the vicinities of bFGF-containing agarose rods and three tissue samples obtained from the vicinities of control bFGF-free agarose rods. The obtained fluorescence intensities were standardized and normalized, and then subjected to statistical analysis. The standardized and normalized gene expression level was statistically compared between the bFGF-containing agarose rod group and the control bFGF-free agarose rod group. Genes showing increased expression in the bFGF-containing agarose rod group were plotted such that their values along the X-axis became positive. Log 2 conversion was carried out in terms of the X-axis. […]

[4] = test system: regulatory T cells (CD4+Foxp3+ cells); assay: Flow cytometry of immune cells from tissue where SEK-1005-containing agarose rod was embedded under the skin: regulatory T cells; assay type: in vivo, ACI rats; details: for ratio of Foxp3+ cells among CD4+ cells: STZ-diabetic ACI rats
Experimental: as §1, with “4.5%” for “4.5”, “50” for “100”, “a” for “500 μg/ml bFGF”, “of 2 mg/ml SEK-1005 in ethanol” for “(FIBLAST Spray 500, Kaken Pharmaceutical Co., Ltd.)”, “SEK-1005” for “bFGF”, “rod. Ethanol was then evaporated by air drying.” for “rod.”
(§4) On the day when the agarose rod was to be embedded, streptozotocin (STZ) (60 mg/kg body weight) was administered to ACI rats to induce diabetes. To each of the left side and the right side of the back of each ACI rat, the agarose rod having a length of 25 mm and a diameter of 4 mm containing 100 μg of SEK-1005 was embedded. On Day 10 after the embedding, the agarose rod was removed. In the vicinity of each place where the agarose rod had been embedded, formation of connective tissue containing a number of blood vessels was found. This tissue was minced with scissors, and then homogenized, followed by collecting cells from the tissue. The cells were subjected to purification by Percoll density gradient centrifugation to obtain immune cells, and the obtained immune cells were analyzed using a flow cytometer.
The ratio of Foxp3^+ cells among CD4^+ cells was 18.3% on Day 2, 20.8% on Day 7, 23.3% on Day 10, and 27.3% on Day 14 after the SEK-1005-containing agarose rod was embedded under the skin.

[5] = test system: cytotoxic T cells (CD8+ T cells); assay: Flow cytometry of immune cells from tissue where SEK-1005-containing agarose rod was embedded under the skin: cytotoxic T cells; assay type: in vivo, ACI rats
Experimental: as §1, with “4.5%” for “4.5”, “50” for “100”, “a” for “500 μg/ml bFGF”, “of 2 mg/ml SEK-1005 in ethanol” for “(FIBLAST Spray 500, Kaken Pharmaceutical Co., Ltd.)”, “SEK-1005” for “bFGF”, “rod. Ethanol was then evaporated by air drying.” for “rod.”
as §4, with “On Day 10 after the embedding, the agarose rod was removed.” left out
In normal subcutaneous tissues, the ratio is about 30%, and, when a foreign substance is embedded, the ratio increases to not less than 50% in most cases. The action of SEK-1005 suppressed such an increase.

TGF-β1 = TGF-β1 concentration in the exudate at the site of the SEK-1005-containing agarose rod; assay type: in vivo, ACI rats
Experimental: as §1, with “4.5%” for “4.5”, “50” for “100”, “a” for “500 μg/ml bFGF”, “of 2 mg/ml SEK-1005 in ethanol” for “(FIBLAST Spray 500, Kaken Pharmaceutical Co., Ltd.)”, “SEK-1005” for “bFGF”, “rod. Ethanol was then evaporated by air drying.” for “rod.”
as §4
The TGF-β1 concentration in the exudate was measured. The TGF-β1 concentration was 0.7±0.1 ng/ml until Day 7 after the SEK-1005-containing agarose rod was embedded. […] This was about 3 times the concentration in a treated group in which an SEK-1005-free agarose rod was embedded.

CD8+ T cells = assay: Treg suppression assay with CD4+CD25+ cells collected from tissue near the SEK-1005-containing agarose rod; assay type: cell-based, ACI rats; details: Group 2: CFSE-stained CD8+ T cells, 1 μg/mL anti-CD3 antibody plus 2.5×10^4 CD4+CD25+ cells from Day 10 rod tissue, Day 4.5; Group 1 without these cells 42.4%
Source text: On Day 10 after embedding of the SEK-1005-containing agarose rod by the same operation as in Example 1, the tissue in the vicinity of the place where the rod was embedded was collected, and then homogenized, followed by collecting cells from the tissue. The cells were subjected to purification by Percoll density gradient centrifugation to obtain immune cells, and CD4^+CD25^+ cells (a fraction containing a large number of tissue-infiltrating regulatory T cells) were collected using MACS magnetic beads.
CD8^+ T cells were separately prepared from ACI rats, and the cells were then stained with a fluorescent dye, carboxyfluorescein succinimidyl ester (CFSE). On a 96-well plate, 2.5×10^4 CD8^+ T cells and 5×10^4 antigen-presenting cells were plated in each well, and the cell growth was quantitatively evaluated using a flow cytometer on Day 4.5 after the plating. The wells were divided into three groups. In Group 1, 1 μg/mL anti-CD3 antibody was added to stimulate the growth. In Group 2, 1 μg/mL anti-CD3 antibody as well as 2.5×10^4 CD4^+CD25^+ cells were added. In Group 3, no anti-CD3 antibody was added.
One round of cell division of T cells stained with a fluorescent dye results in a decrease in the fluorescence intensity to half. Another division results in a decrease in the fluorescent intensity to one fourth of the original intensity. […]

[6] = test system: chemokine/cytokine-associated genes; assay: Gene expression analysis of tissue in vicinity of embedded SEK-1005-containing agarose rod; assay type: in vivo, rat; details: Day 7 after embedding, versus SEK-1005-free agarose rod group
Source text: as §3, with “SEK-1005-containing” for “bFGF-containing”, “1,” for “4,”, “SEK-1005-free” for “bFGF-free”

[7] = Blood glucose level after transplantation of pancreatic islets into the site where the SEK-1005-containing agarose rod was embedded; assay type: in vivo; details: then removed, 1,500 F344 rat islets per cavity, STZ-diabetic ACI rats
Experimental: On the day when the SEK-1005-containing agarose rod was to be embedded, streptozotocin (STZ) (60 mg/kg body weight) was administered to ACI rats to induce diabetes. Under the skin of each of the left side and the right side of the back of each ACI rat, the agarose rod prepared in the same way as Example 1 was embedded. On Day 2 or Day 10 after the embedding, the agarose rod was removed, and 1,500 pieces of pancreatic islets separated from the pancreases of F344 rats were transplanted to each of the two dorsal subcutaneous cavities formed. After the transplantation, the blood glucose levels of the rats were measured. […] When SEK-1005-free agarose rod was embedded in the STZ-administered rats for 10 days and after removal of the agarose-rod, pancreatic islets were transplanted to the embedded site, the blood glucose levels of the diabetic rats were not decreased.

## bFGF: basic fibroblast growth factor; bFGF solution (FIBLAST Spray 500, Kaken Pharmaceutical Co., Ltd.)
[1]; Day 2 after rod with 50 μg bFGF embedded under the skin
  ratio of Foxp3+ cells among CD4+ cells: 25.4%
[1]; Day 7 after rod with 50 μg bFGF embedded under the skin
  ratio of Foxp3+ cells among CD4+ cells: 24.4%
[1]; Day 10 after rod with 50 μg bFGF embedded under the skin
  ratio of Foxp3+ cells among CD4+ cells: 24.4%
[1]; Day 14 after rod with 50 μg bFGF embedded under the skin
  ratio of Foxp3+ cells among CD4+ cells: 26.4%
[1]; versus about 10% in normal subcutaneous tissues and bFGF-free agarose rod-embedded rats
  increase of ratio of regulatory T cells: 2- to 3 fold
[2]
  granulocyte marker: increase
  myeloid-derived suppressor cells (MDSCs): induced
[3]
  expression of genes associated with migration/induction of regulatory T cells among chemokine/cytokine-associated genes: significant increase
  expression of genes not associated with migration/induction of regulatory T cells among chemokine/cytokine-associated genes: significant decrease

## CC(C)CC1CCC(O)(C(C)(O)C(=O)NC2C(=O)N3NCCCC3C(=O)N(O)C(C)C(=O)N(C)C(Cc3ccccc3)C(=O)N3NCCCC3C(=O)NC(CO)C(=O)OC2C(C)C)OC1C (stereo not drawn) [SEK-1005, Ser, 3-hydroxy-N-[2-hydroxy-1-oxo-2-tetrahydro-2-hydroxy-6-methyl-5-(2-methylpropyl)-2H-pyran-2-yl-propyl]-Leu-Pip(hexahydro-3-pyridazinecarbonyl)-N-hydroxy-Ala-N-methyl-Phe-Pip-rho-lactone]
[4]; Day 2 after rod with 100 μg SEK-1005 embedded under the skin
  ratio of Foxp3+ cells among CD4+ cells: 18.3%
[4]; Day 7 after rod with 100 μg SEK-1005 embedded under the skin
  ratio of Foxp3+ cells among CD4+ cells: 20.8%
[4]; Day 10 after rod with 100 μg SEK-1005 embedded under the skin
  ratio of Foxp3+ cells among CD4+ cells: 23.3%
[4]; Day 14 after rod with 100 μg SEK-1005 embedded under the skin
  ratio of Foxp3+ cells among CD4+ cells: 27.3%
[4]; versus about 10% in normal subcutaneous tissues
  increase of ratio of regulatory T cells (CD4+Foxp3+ cells): 2- to 3 fold
[5]; Day 2 after SEK-1005-containing agarose rod embedded under the skin
  ratio of cytotoxic T cells (CD8+ T cells) to CD4+ cells among CD3+ cells: 36.1%
[5]; Day 7 after SEK-1005-containing agarose rod embedded under the skin
  ratio of cytotoxic T cells (CD8+ T cells) to CD4+ cells among CD3+ cells: 33.7%
[5]; Day 10 after SEK-1005-containing agarose rod embedded under the skin
  ratio of cytotoxic T cells (CD8+ T cells) to CD4+ cells among CD3+ cells: 25.5%
[5]; Day 14 after SEK-1005-containing agarose rod embedded under the skin
  ratio of cytotoxic T cells (CD8+ T cells) to CD4+ cells among CD3+ cells: 23.9%
TGF-β1; Day 10 after the embedding
  TGF-β1 concentration in the exudate: 2.0 ± 1.0 ng/mL
  TGF-β1 concentration relative to SEK-1005-free agarose rod group: about 3 times
TGF-β1; until Day 7 after the rod was embedded
  TGF-β1 concentration in the exudate: 0.7 ± 0.1 ng/mL
CD8+ T cells
  ratio of cells exhibiting decreased fluorescence intensity due to cell division: 13.4%
[6]
  expression of genes associated with migration/induction of regulatory T cells among chemokine/cytokine-associated genes: significant increase
  expression of genes not associated with migration/induction of regulatory T cells among chemokine/cytokine-associated genes: significant decrease
[7]; rod embedded for ten days
  blood glucose levels after transplantation of pancreatic islets: normalized
[7]; rod embedded for two days
  blood glucose levels after transplantation of pancreatic islets: > 400 mg/dL
